In patent US20120058133A1, “INHIBITION OF TRNA SYNTHETASES AND THERAPEUTIC APPLICATIONS THEREOF” (President and Fellows of Harvard College, priority 2009, published 2012):

Tests used:
MEFs = test: Total protein synthesis and metabolic activity (Alamar blue) of fibroblasts; type: cell-based, mouse
Experimental: (§1) FIG. 26D. HF-inhibition of collagen production is rescued by proline and doesn't affect overall protein synthesis. Cells were pre-incubated with HF with or without proline for 4 hours, and ^35S-methionine and HF with or without proline was added. 24 hours later, conditioned medium and total cell lysate was harvested. New production of Type I procollagen was measured in conditioned medium by Western blot, and bands quantitated using Image J quantitation software. The original blot is shown in FIG. 27; total protein synthesis was measured as TCA-precipitable ^35S in a scintillation counter. Error bars reflect standard deviation of triplicate determinations.
FIG. 29. HF effect on cellular metabolic activity. MEFs were incubated at indicated dose of HF with or without 2 mM proline for 24 hours and tested for metabolic activity using an Alamar blue assay (Invitrogen).

[1] = test system: primary human memory T cells (CD4+ CD45RO+); test: IL-17 and IFNγ expression by human memory T cells co-cultured with CD14+ monocytes; type: cell-based; details: 100 nM HF, 6 days
Experimental: FIG. 2F is a set of FACS analyses of purified primary human memory T cells (CD4^+ CD45RO^+) activated in co-culture with CD14^+ monocytes and treated with DMSO, 100 nM HF or 100 nM MAZ1310. T cells were expanded for 6 days and intracellular cytokine expression was determined following restimulation with PMA plus ionomycin.
Primary murine T and B cells were purified by cell sorting. CD4^+ CD25^− T cells were positively selected using CD4 dynabeads and detachabeads (Dynal—Oslo, Norway) per manufacturers instructions followed by nTreg depletion using a CD25 microbead kit (Miltenyi biotech—Auburn, Calif.). Naïve (CD4^+ CD62Lhi CD44lo Foxp3gfp- or CD4^+ CD62Lhi CD44lo CD25^−) T cells were purified from Foxp3gfp or Foxp3ko mice, respectively, by FACS sorting. CD8^+ T cells or B cells were isolated from CD4^− fractions using CD8 negative isolation kit (Dynal) or CD43 negative isolation kit (Miltenyi biotech), respectively. Resting human CD4^+ T cells were isolated from PBMC of healthy human donors using Dynal CD4 Positive Isolation Kit (Invitrogen—Carlsbad, Calif.) as previously described (Sundrud et al., Blood 106:3440, 2005). CD4^+ cells were further purified to obtain memory T cells by staining with PE-conjugated anti-human CD45RO-PE antibodies (BD Biosciences), and sorting on a FACSAria cytometer (BD Biosciences). Following purification, cells were greater than 99% CD4^+ CD45RO^+. […]

[2] = test system: mouse embryo fibroblasts (MEFs); test: ECM gene expression and protein production in MEFs; type: cell-based
Experimental: FIG. 26C. Proline rescues both HF stimulated and HF inhibited gene expression. MEFs were treated with or without HF (50 nM) and/or Proline (2 mM) for 4 hours (CHOP, S100A4) or 24 hours (CoLIA1, ColIA2). DMSO was used as vehicle control. Changes in mRNA levels are expressed as fold-change relative to control and normalized to expression of TBP. Error bars reflect standard deviation of determinations from plates of cells treated in triplicate, confidence interval (p-value) for the effect of HF alone versus HF+Pro was determined using a two-tailed Student's t test. Data are representative of two separate experiments.
as §1
FIG. 33. Proline rescues HF-suppression of ECM protein production. MEFs were incubated for 4 hours in HF with or without 2 mM Pro, to measure new collagen production in conditioned medium (cells were washed into fresh DMEM/0.2% FBS with fresh HF and proline re-added, and either conditioned medium (for Type I procollagen) or total cell lysate (for fibronectin, […]) harvested twenty four hours later. Protein levels were assayed by Western blot.
Q-PCR was performed using the Roche LightCycle UPR system, using the following primers and probes: […]

## O=C(CC1NCCCC1O)Cn1cnc2cc(Br)c(Cl)cc2c1=O (racemic) [HF, halofuginone]
MEFs
  total metabolic activity of fibroblasts: unaffected
MEFs; doses inhibiting ECM proteins, 24 hours
  35S-methionine incorporation into total protein: did not significantly change
[1]
  IFNγ expression in human T cells: essentially unaffected
  percentage of human T cells expressing IL-17 and amount of IL-17 produced: greatly reduced
[2]; 50 nM HF, 4 or 24 hours
  mRNA levels of ColIA1, ColIA2, and S100A4: inhibited mRNA levels
[2]; 50 nM HF, 4 hours
  CHOP mRNA expression: stimulated
[2]; 2 mM proline
  reversal of HF effects on ECM genes and proteins by proline: reversed by the addition of 2 mM proline
[2]; 24 hours
  production of fibronectin: dramatically inhibited
  production of secreted Type I procollagen protein: dramatically inhibited
